What was measured:
Format in all cases: in vivo
[1] = tested on: high fat diet-induced insulin resistance model with C57/BL 6J mice; test: Body weight in high fat diet-induced insulin resistance model
Source text: Evaluation of effect of different fractions of Costus pictus D. Don on high fat diet-induced insulin resistance model with C57/BL 6J mice.
(§1) The study was designed to evaluate the effect of different fractions of Costus pictus D. Don on high fat-induced resistance Type 2diabetic model (HFD). Six week-old C57B1/6J mice were allowed free access to food and water. They were housed under identical standard conditions. The animals were kept for acclimatization for a period of 7 days. After 7 days, the mice were randomly divided into six groups of six mice each. The normal control group was treated with normal regular diet and the rest of the animals were fed with high fat diet for 6 weeks. After 6 weeks, methanolic extract of fresh leaves of Costus pictus D. Don, and the extract had low oxalic acid and/or oxalates content, silica purified ethyl acetate extract of methanolic extract of fresh leaves of Costus pictus D. Don where the extract had low oxalic acid and/or oxalates content and ethyl acetate extract of 90% methanolic extract of fresh leaves of Costus pictus D. Don where the extract had low oxalic acid and/or oxalates content were administered at 40 mg/kg p.o. for 6 consecutive weeks. The experimental design was as follows:
Group 3—HFD for 6 weeks and Standard drug treated group for 6 weeks—metformin.
Group 4—HFD for 6 weeks and methanolic extract of fresh leaves of Costus pictus D. Don where the extract had low oxalic acid and/or oxalates content (Sample 2 prepared as per example 1) at 40 mg/kg orally for 6 weeks.
Group 5—HFD for 6 weeks and silica purified ethyl acetate extract of 90% methanolic extract of fresh leaves of Costus pictus D. Don where the extract had low oxalic acid and/or oxalates content (Sample 5 prepared as per example 4) at 40 mg/kg orally for 6 weeks.
Group 6—HFD for 6 weeks and ethyl acetate extract of 90% methanol extract of fresh leaves of Costus pictus D. Don where the extract had low oxalic acid and/or oxalates content (Sample 4 prepared as per example 3) at 40 mg/kg orally for 6 weeks.
(§2) Body weights were determined biweekly. At the end of experimental period, blood samples were collected to determine plasma glucose, insulin, leptin, glycosylated hemoglobin, triglycerides, total cholesterol, LDL, HDL and VLDL.

[2] = tested on: high fat diet-induced insulin resistance model with C57/BL 6J mice; test: Blood glucose in high fat diet-induced insulin resistance model; settings: HFD mice, end of experimental period; extracts 40 mg/kg orally for 6 weeks, metformin as standard drug
Description: as §1, §2

[3] = tested on: high fat diet-induced insulin resistance model with C57/BL 6J mice; test: Lipid profile in high fat diet-induced insulin resistance model; settings: high fat diet induced diabetes mellitus, extracts 40 mg/kg orally for 6 weeks, metformin as standard drug
Description: The study was designed to evaluate the effect of different fractions of Costus pictus D. Don on high fat-induced resistance Type 2diabetic model (HFD). Six week-old C57B1/6J mice were allowed free access to food and water. They were housed under identical standard conditions. The animals were kept for acclimatization for a period of 7 days. After 7 days, the mice were randomly divided into six groups of six mice each. The normal control group was treated with normal regular diet and the rest of the animals were fed with high fat diet for 6 weeks. […] The experimental design was as follows:
as §2

[4] = tested on: high fat diet-induced insulin resistance model with C57/BL 6J mice; test: Serum insulin and glycosylated hemoglobin in high fat diet-induced insulin resistance model; settings: high fat diet induced diabetes mellitus, extracts 40 mg/kg orally for 6 weeks, metformin as standard drug
Description: as §1, §2

With `CN(C)C(=N)N=C(N)N` [metformin] the “Body weight, week 0” value ([1]; C57/BL 6J mice on high fat diet, week 0, before treatment) was 15 grams, the “Body weight, week 2” value ([1]; C57/BL 6J mice on high fat diet, week 2, before treatment) was 30 grams and the “Body weight, week 4” value ([1]; C57/BL 6J mice on high fat diet, week 4, before treatment) was 46 grams. For the same molecule, the “Body weight, week 6” value ([1]; C57/BL 6J mice on high fat diet, week 6, start of treatment) was 61 grams, the “Body weight, week 8” value ([1]; HFD mice, week 8, extracts 40 mg/kg orally from week 6, metformin as standard drug) was 48 grams and the “Body weight, week 10” value ([1]; HFD mice, week 10, extracts 40 mg/kg orally from week 6, metformin as standard drug) was 35 grams. The “Body weight, week 12” value ([1]; HFD mice, week 12, extracts 40 mg/kg orally from week 6, metformin as standard drug) was 35 grams, the Blood glucose [2] was 100 mg/dL and the HDL [3] was 99 mg/dL. For the same molecule, the LDL [3] was 17 mg/dL, the VLDL [3] was 6 mg/dL and the TC ([3]; total cholesterol) was 122 mg/dL. For the same molecule, the TG ([3]; triglycerides) was 30 mg/dL, the “Glycosylated Hb” value [4] was 0.5 % of total Hb and the Insulin ([4]; serum) was 1.7 ng/mL.

From patent publication US20180228861A1, “COMPOSITION FOR TREATING DIABETES AND DYSLIPIDEMIA OBTAINED FROM THE EXTRACT OF COSTUS PICTUS D.DON PLANT AND A METHOD OF PREPARING THE SAME” (ARJUNA NATURAL EXTRACTS, LTD., priority 2012, published 2018)
